Results taken from ChEMBL document CHEMBL1201861, “Genomics of Drug Sensitity in Cancer screening data, Wellcome Trust Sanger Institute”.

test system: COLO-800; experiment: cells; type: functional, cell-based, Homo sapiens; settings: Homo sapiens, COLO-800;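 further: growth inhibition of COLO-800 cells, read out with a cell viability assay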
Description: SANGER: Inhibition of human COLO-800 cell growth in a cell viability assay.

| Compound | IC50 |
| --- | --- |
| CCCCCCCCCCCC1=C(O)C(=O)C=C(O)C1=O [EMBELIN] | > 32 µM |

test system: COLO-829; experiment: cells; type: functional, cell-based, Homo sapiens; settings: Homo sapiens, COLO-829
Description: SANGER: Inhibition of human COLO-829 cell growth in a cell viability assay.

| Compound | IC50 |
| --- | --- |
| CCCCCCCCCCCC1=C(O)C(=O)C=C(O)C1=O [EMBELIN] | 5.29 µM |

test system: CTV-1; experiment: cells; type: functional, cell-based, Homo sapiens; settings: Homo sapiens, CTV-1;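 further: growth inhibition of the cell line, read out with a cell viability assay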
Description: SANGER: Inhibition of human CTV-1 cell growth in a cell viability assay.

| Compound | IC50 |
| --- | --- |
| CCCCCCCCCCCC1=C(O)C(=O)C=C(O)C1=O [EMBELIN] | 9.37 µM |

test system: CW-2; experiment: cells; type: functional, cell-based, Homo sapiens; settings: Homo sapiens, CW-2;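 further: growth inhibition of CW-2 cells, read out by a cell viability assay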
Description: SANGER: Inhibition of human CW-2 cell growth in a cell viability assay.

| Compound | IC50 |
| --- | --- |
| CCCCCCCCCCCC1=C(O)C(=O)C=C(O)C1=O [EMBELIN] | > 32 µM |

test system: D283 Med; experiment: cells; type: functional, cell-based, Homo sapiens; settings: Homo sapiens, D283 Med
Description: SANGER: Inhibition of human D-283MED cell growth in a cell viability assay.

| Compound | IC50 |
| --- | --- |
| CCCCCCCCCCCC1=C(O)C(=O)C=C(O)C1=O [EMBELIN] | 14.7 µM |

test system: EKVX; experiment: cells; type: functional, cell-based, Homo sapiens; settings: Homo sapiens, EKVX;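 further: growth inhibition of human EKVX cells, read out with a cell viability assay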
Description: SANGER: Inhibition of human EKVX cell growth in a cell viability assay.

| Compound | IC50 |
| --- | --- |
| CCCCCCCCCCCC1=C(O)C(=O)C=C(O)C1=O [EMBELIN] | > 32 µM |

test system: ES7; experiment: cells; type: functional, cell-based, Homo sapiens; settings: Homo sapiens, ES7;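 further: growth inhibition of cultured human ES7 cells, read out as cell viability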
Description: SANGER: Inhibition of human ES7 cell growth in a cell viability assay.

| Compound | IC50 |
| --- | --- |
| CCCCCCCCCCCC1=C(O)C(=O)C=C(O)C1=O [EMBELIN] | 6.6 µM |

test system: ETK-1; experiment: cells; type: functional, cell-based, Homo sapiens; settings: Homo sapiens, ETK-1;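 further: growth inhibition of human ETK-1 cells, read out with a cell viability assay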
Description: SANGER: Inhibition of human ETK-1 cell growth in a cell viability assay.

| Compound | IC50 |
| --- | --- |
| CCCCCCCCCCCC1=C(O)C(=O)C=C(O)C1=O [EMBELIN] | 9.75 µM |

test system: EW-18; experiment: cells; type: functional, cell-based, Homo sapiens; settings: Homo sapiens, EW-18; read-out: IC50;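 further: growth inhibition of EW-18 cells, read out by a cell viability assay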
Description: SANGER: Inhibition of human EW-18 cell growth in a cell viability assay.

| Compound | IC50 |
| --- | --- |
| CCCCCCCCCCCC1=C(O)C(=O)C=C(O)C1=O [EMBELIN] | 10.5 µM |

test system: EOL1; experiment: cells; type: functional, cell-based, Homo sapiens; settings: Homo sapiens, EOL1;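 further: growth inhibition of EoL-1 cells, read out by a cell viability assay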
Description: SANGER: Inhibition of human EoL-1-cell cell growth in a cell viability assay.

| Compound | IC50 |
| --- | --- |
| CCCCCCCCCCCC1=C(O)C(=O)C=C(O)C1=O [EMBELIN] | 6.73 µM |

test system: GCIY; experiment: cells; type: functional, cell-based, Homo sapiens; settings: Homo sapiens, GCIY;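 further: growth inhibition of the human GCIY cell line, read out by a cell viability assay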
Description: SANGER: Inhibition of human GCIY cell growth in a cell viability assay.

| Compound | IC50 |
| --- | --- |
| CCCCCCCCCCCC1=C(O)C(=O)C=C(O)C1=O [EMBELIN] | 10.1 µM |

test system: HAL-01; experiment: cells; type: functional, cell-based, Homo sapiens; settings: Homo sapiens, HAL-01;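 further: growth inhibition of human HAL-01 cells, read out with a cell viability assay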
Description: SANGER: Inhibition of human HAL-01 cell growth in a cell viability assay.

| Compound | IC50 |
| --- | --- |
| CCCCCCCCCCCC1=C(O)C(=O)C=C(O)C1=O [EMBELIN] | 25.8 µM |

test system: HCC1187; experiment: cells; type: functional, cell-based, Homo sapiens; settings: Homo sapiens, HCC1187;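 further: growth inhibition of HCC1187 cells, read out with a cell viability assay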
Description: SANGER: Inhibition of human HCC1187 cell growth in a cell viability assay.

| Compound | IC50 |
| --- | --- |
| CCCCCCCCCCCC1=C(O)C(=O)C=C(O)C1=O [EMBELIN] | > 32 µM |

test system: HCC2218; experiment: cells; type: functional, cell-based, Homo sapiens; settings: Homo sapiens, HCC2218;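 further: cell viability assay read-out, with IC50 given as the concentration that inhibits growth of the cell line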
Description: SANGER: Inhibition of human HCC2218 cell growth in a cell viability assay.

| Compound | IC50 |
| --- | --- |
| CCCCCCCCCCCC1=C(O)C(=O)C=C(O)C1=O [EMBELIN] | 13 µM |

test system: HEL; experiment: cells; type: functional, cell-based, Homo sapiens; settings: Homo sapiens, HEL;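 further: growth inhibition of HEL cells, read out with a cell viability assay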
Description: SANGER: Inhibition of human HEL cell growth in a cell viability assay.

| Compound | IC50 |
| --- | --- |
| CCCCCCCCCCCC1=C(O)C(=O)C=C(O)C1=O [EMBELIN] | 11.2 µM |

test system: K562; experiment: cells; type: functional, cell-based, Homo sapiens; settings: Homo sapiens, K562
Description: SANGER: Inhibition of human K-562 cell growth in a cell viability assay.

| Compound | IC50 |
| --- | --- |
| CCCCCCCCCCCC1=C(O)C(=O)C=C(O)C1=O [EMBELIN] | 31.7 µM |

test system: KINGS-1; experiment: cells; type: functional, cell-based, Homo sapiens; settings: Homo sapiens, KINGS-1;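 further: cell viability assay measuring suppression of KINGS-1 cell growth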
Description: SANGER: Inhibition of human KINGS-1 cell growth in a cell viability assay.

| Compound | IC50 |
| --- | --- |
| CCCCCCCCCCCC1=C(O)C(=O)C=C(O)C1=O [EMBELIN] | > 32 µM |

test system: KNS-42; experiment: cells; type: functional, cell-based; settings: Homo sapiens;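 further: growth inhibition of KNS-42 cells, read out with a cell viability assay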
Description: SANGER: Inhibition of human KNS-42 cell growth in a cell viability assay.

| Compound | IC50 |
| --- | --- |
| CCCCCCCCCCCC1=C(O)C(=O)C=C(O)C1=O [EMBELIN] | > 32 µM |

test system: LB1047-RCC; experiment: cells; type: functional, cell-based, Homo sapiens; settings: Homo sapiens, LB1047-RCC;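 further: inhibition of cell growth, determined with a cell viability assay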
Description: SANGER: Inhibition of human LB1047-RCC cell growth in a cell viability assay.

| Compound | IC50 |
| --- | --- |
| CCCCCCCCCCCC1=C(O)C(=O)C=C(O)C1=O [EMBELIN] | 5.8 µM |

test system: LNCaP-Clone-FGC; experiment: cells; type: functional, cell-based, Homo sapiens; settings: Homo sapiens, LNCaP-Clone-FGC
Description: SANGER: Inhibition of human LNCaP-Clone-FGC cell growth in a cell viability assay.

| Compound | IC50 |
| --- | --- |
| CCCCCCCCCCCC1=C(O)C(=O)C=C(O)C1=O [EMBELIN] | 21.9 µM |

test system: LU-139; experiment: cells; type: functional, cell-based, Homo sapiens; settings: Homo sapiens, LU-139
Description: SANGER: Inhibition of human LU-139 cell growth in a cell viability assay.

| Compound | IC50 |
| --- | --- |
| CCCCCCCCCCCC1=C(O)C(=O)C=C(O)C1=O [EMBELIN] | > 32 µM |

test system: MFM-223; experiment: cells; type: functional, cell-based, Homo sapiens; settings: Homo sapiens, MFM-223
Description: SANGER: Inhibition of human MFM-223 cell growth in a cell viability assay.

| Compound | IC50 |
| --- | --- |
| CCCCCCCCCCCC1=C(O)C(=O)C=C(O)C1=O [EMBELIN] | > 32 µM |

test system: MSTO-211H; experiment: cells; type: functional, cell-based, Homo sapiens; settings: Homo sapiens, MSTO-211H
Description: SANGER: Inhibition of human MSTO-211H cell growth in a cell viability assay.

| Compound | IC50 |
| --- | --- |
| CCCCCCCCCCCC1=C(O)C(=O)C=C(O)C1=O [EMBELIN] | > 32 µM |

test system: NB10; experiment: cells; type: functional, cell-based, Homo sapiens; settings: Homo sapiens, NB10;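 further: growth inhibition of NB10 cells, read out by a cell viability assay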
Description: SANGER: Inhibition of human NB10 cell growth in a cell viability assay.

| Compound | IC50 |
| --- | --- |
| CCCCCCCCCCCC1=C(O)C(=O)C=C(O)C1=O [EMBELIN] | > 32 µM |

test system: NCI-H1355; experiment: cells; type: functional, cell-based, Homo sapiens; settings: Homo sapiens, NCI-H1355;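 further: growth inhibition of human NCI-H1355 cells, read out by a cell viability assay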
Description: SANGER: Inhibition of human NCI-H1355 cell growth in a cell viability assay.

| Compound | IC50 |
| --- | --- |
| CCCCCCCCCCCC1=C(O)C(=O)C=C(O)C1=O [EMBELIN] | 10.1 µM |

test system: NCI-H1838; experiment: cells; type: functional, cell-based, Homo sapiens; settings: Homo sapiens, NCI-H1838;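 further: growth inhibition of NCI-H1838 cells, determined with a cell viability readout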
Description: SANGER: Inhibition of human NCI-H1838 cell growth in a cell viability assay.

| Compound | IC50 |
| --- | --- |
| CCCCCCCCCCCC1=C(O)C(=O)C=C(O)C1=O [EMBELIN] | > 32 µM |

test system: NCI-H69; experiment: cells; type: functional, cell-based, Homo sapiens; settings: Homo sapiens, NCI-H69;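 further: growth inhibition of the cell line, read out with a cell viability assay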
Description: SANGER: Inhibition of human NCI-H69 cell growth in a cell viability assay.

| Compound | IC50 |
| --- | --- |
| CCCCCCCCCCCC1=C(O)C(=O)C=C(O)C1=O [EMBELIN] | > 32 µM |

test system: NEC8; experiment: cells; type: functional, cell-based, Homo sapiens; settings: Homo sapiens, NEC8;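 further: growth inhibition of human NEC8 cells, read out by a cell viability assay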
Description: SANGER: Inhibition of human NEC8 cell growth in a cell viability assay.

| Compound | IC50 |
| --- | --- |
| CCCCCCCCCCCC1=C(O)C(=O)C=C(O)C1=O [EMBELIN] | 6.89 µM |

test system: NOMO-1; experiment: cells; type: functional, cell-based, Homo sapiens; settings: Homo sapiens, NOMO-1;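 further: growth inhibition of human NOMO-1 cells measured by a cell viability assay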
Description: SANGER: Inhibition of human NOMO-1 cell growth in a cell viability assay.

| Compound | IC50 |
| --- | --- |
| CCCCCCCCCCCC1=C(O)C(=O)C=C(O)C1=O [EMBELIN] | 12.3 µM |

test system: P30-OHK; experiment: cells; type: functional, cell-based, Homo sapiens; settings: Homo sapiens, P30-OHK;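 further: growth inhibition of the P30-OHK cell line, read out with a cell viability assay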
Description: SANGER: Inhibition of human P30-OHK cell growth in a cell viability assay.

| Compound | IC50 |
| --- | --- |
| CCCCCCCCCCCC1=C(O)C(=O)C=C(O)C1=O [EMBELIN] | 6.13 µM |

test system: QIMR-WIL; experiment: cells; type: functional, cell-based, Homo sapiens; settings: Homo sapiens, QIMR-WIL;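 further: growth inhibition of QIMR-WIL cells, read out with a cell viability assay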
Description: SANGER: Inhibition of human QIMR-WIL cell growth in a cell viability assay.

| Compound | IC50 |
| --- | --- |
| CCCCCCCCCCCC1=C(O)C(=O)C=C(O)C1=O [EMBELIN] | 5.29 µM |

test system: RH-1; experiment: cells; type: functional, cell-based, Homo sapiens; settings: Homo sapiens, RH-1;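 further: growth inhibition of human RH-1 cells, read out with a cell viability assay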
Description: SANGER: Inhibition of human RH-1 cell growth in a cell viability assay.

| Compound | IC50 |
| --- | --- |
| CCCCCCCCCCCC1=C(O)C(=O)C=C(O)C1=O [EMBELIN] | 13.3 µM |

test system: RPMI-8226; experiment: cells; type: functional, cell-based, Homo sapiens; settings: Homo sapiens, RPMI-8226
Description: SANGER: Inhibition of human RPMI-8226 cell growth in a cell viability assay.

| Compound | IC50 |
| --- | --- |
| CCCCCCCCCCCC1=C(O)C(=O)C=C(O)C1=O [EMBELIN] | 13.7 µM |

test system: SCH; experiment: cells; type: functional, cell-based, Homo sapiens; settings: Homo sapiens, SCH;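 further: growth inhibition of human SCH cells, read out in a cell viability assay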
Description: SANGER: Inhibition of human SCH cell growth in a cell viability assay.

| Compound | IC50 |
| --- | --- |
| CCCCCCCCCCCC1=C(O)C(=O)C=C(O)C1=O [EMBELIN] | > 32 µM |

test system: SF-268; experiment: cells; type: functional, cell-based, Homo sapiens; settings: Homo sapiens, SF-268;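 further: growth inhibition of SF-268 cells determined with a cell viability assay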
Description: SANGER: Inhibition of human SF268 cell growth in a cell viability assay.

| Compound | IC50 |
| --- | --- |
| CCCCCCCCCCCC1=C(O)C(=O)C=C(O)C1=O [EMBELIN] | 7.9 µM |

test system: SK-N-DZ; experiment: cells; type: functional, cell-based, Homo sapiens; settings: Homo sapiens, SK-N-DZ; read-out: IC50;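 further: growth inhibition of the cancer cell line, read out through a viability assay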
Description: SANGER: Inhibition of human SK-N-DZ cell growth in a cell viability assay.

| Compound | IC50 |
| --- | --- |
| CCCCCCCCCCCC1=C(O)C(=O)C=C(O)C1=O [EMBELIN] | > 32 µM |

test system: SK-NEP-1; experiment: cells; type: functional, cell-based, Homo sapiens; settings: Homo sapiens, SK-NEP-1;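 further: growth inhibition of human SK-NEP-1 cells, read out by a cell viability assay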
Description: SANGER: Inhibition of human SK-NEP-1 cell growth in a cell viability assay.

| Compound | IC50 |
| --- | --- |
| CCCCCCCCCCCC1=C(O)C(=O)C=C(O)C1=O [EMBELIN] | 15.1 µM |

test system: SW872; experiment: cells; type: functional, cell-based, Homo sapiens; settings: Homo sapiens, SW872;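 further: growth inhibition of SW872 cells, read out by a viability assay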
Description: SANGER: Inhibition of human SW872 cell growth in a cell viability assay.

| Compound | IC50 |
| --- | --- |
| CCCCCCCCCCCC1=C(O)C(=O)C=C(O)C1=O [EMBELIN] | 16.2 µM |

test system: A101D; experiment: cells; type: functional, cell-based, Homo sapiens; settings: Homo sapiens, A101D;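 further: growth inhibition of the cell line, measured with a viability assay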
Description: SANGER: Inhibition of human A101D cell growth in a cell viability assay.

| Compound | IC50 |
| --- | --- |
| CCCCCCCCCCCC1=C(O)C(=O)C=C(O)C1=O [EMBELIN] | 6.37 µM |

test system: A4-Fuk; experiment: cells; type: functional, cell-based, Homo sapiens; settings: Homo sapiens, A4-Fuk;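 further: growth inhibition of A4-Fuk cells, read out by a cell viability assay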
Description: SANGER: Inhibition of human A4-Fuk cell growth in a cell viability assay.

| Compound | IC50 |
| --- | --- |
| CCCCCCCCCCCC1=C(O)C(=O)C=C(O)C1=O [EMBELIN] | > 32 µM |

test system: ATN-1; experiment: cells; type: functional, cell-based, Homo sapiens; settings: Homo sapiens, ATN-1;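 further: growth inhibition of human ATN-1 cells, read out with a cell viability assay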
Description: SANGER: Inhibition of human ATN-1 cell growth in a cell viability assay.

| Compound | IC50 |
| --- | --- |
| CCCCCCCCCCCC1=C(O)C(=O)C=C(O)C1=O [EMBELIN] | > 32 µM |

test system: BV-173; experiment: cells; type: functional, cell-based, Homo sapiens; settings: Homo sapiens, BV-173
Description: SANGER: Inhibition of human BV-173 cell growth in a cell viability assay.

| Compound | IC50 |
| --- | --- |
| CCCCCCCCCCCC1=C(O)C(=O)C=C(O)C1=O [EMBELIN] | > 32 µM |

test system: TE-12; experiment: cells; type: functional, cell-based, Homo sapiens; settings: Homo sapiens, TE-12;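 further: growth inhibition of TE-12 cells, read out by a cell viability assay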
Description: SANGER: Inhibition of human TE-12 cell growth in a cell viability assay.

| Compound | IC50 |
| --- | --- |
| CCCCCCCCCCCC1=C(O)C(=O)C=C(O)C1=O [EMBELIN] | 14.4 µM |

test system: TE-8; experiment: cells; type: functional, cell-based, Homo sapiens; settings: Homo sapiens, TE-8;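 further: growth inhibition of TE-8 cells, measured with a cell viability readout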
Description: SANGER: Inhibition of human TE-8 cell growth in a cell viability assay.

| Compound | IC50 |
| --- | --- |
| CCCCCCCCCCCC1=C(O)C(=O)C=C(O)C1=O [EMBELIN] | 11 µM |

test system: U-87 MG; experiment: cells; type: functional, cell-based, Homo sapiens, U-87MG ATCC; settings: Homo sapiens, U-87 MG;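 further: growth inhibition of the cells measured with a viability assay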
Description: SANGER: Inhibition of human U-87-MG cell growth in a cell viability assay.

| Compound | IC50 |
| --- | --- |
| CCCCCCCCCCCC1=C(O)C(=O)C=C(O)C1=O [EMBELIN] | > 32 µM |

test system: CAS-1; experiment: cells; type: functional, cell-based, Homo sapiens; settings: Homo sapiens, CAS-1;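 further: growth inhibition of CAS-1 cells, measured with a cell viability assay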
Description: SANGER: Inhibition of human CAS-1 cell growth in a cell viability assay.

| Compound | IC50 |
| --- | --- |
| CCCCCCCCCCCC1=C(O)C(=O)C=C(O)C1=O [EMBELIN] | 15.3 µM |

test system: COLO-320-HSR; experiment: cells; type: functional, cell-based, Homo sapiens; settings: Homo sapiens, COLO-320-HSR;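 further: growth inhibition of COLO-320-HSR cells, determined with a cell viability assay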
Description: SANGER: Inhibition of human COLO-320-HSR cell growth in a cell viability assay.

| Compound | IC50 |
| --- | --- |
| CCCCCCCCCCCC1=C(O)C(=O)C=C(O)C1=O [EMBELIN] | 17.1 µM |

test system: COLO-668; experiment: cells; type: functional, cell-based, Homo sapiens; settings: Homo sapiens, COLO-668
Description: SANGER: Inhibition of human COLO-668 cell growth in a cell viability assay.

| Compound | IC50 |
| --- | --- |
| CCCCCCCCCCCC1=C(O)C(=O)C=C(O)C1=O [EMBELIN] | > 32 µM |
